From patent publication US20060247249A1 (priority 2005, published 2006)
pKi: −log10 of the molar value. Counter-ions that a name gives are not always drawn.

Tests used:
α1A adrenoceptor = target: T1, α1A adrenoceptor (Rattus norvegicus, UniProt P43140); test: Radioligand binding, [3H] prazosin displacement, rat submaxillary membranes; conditions: for pKi: [3H] prazosin displacement, rat submaxillary membranes, read-out: Affinity for α1A (Rat Submaxillary), Ki; for α1B/α1A: ratio of binding affinities, rat liver vs rat submaxillary
T1 construct: from tissue; host or cells: rat submaxillary gland membranes
T1 sequence (P43140 1-466): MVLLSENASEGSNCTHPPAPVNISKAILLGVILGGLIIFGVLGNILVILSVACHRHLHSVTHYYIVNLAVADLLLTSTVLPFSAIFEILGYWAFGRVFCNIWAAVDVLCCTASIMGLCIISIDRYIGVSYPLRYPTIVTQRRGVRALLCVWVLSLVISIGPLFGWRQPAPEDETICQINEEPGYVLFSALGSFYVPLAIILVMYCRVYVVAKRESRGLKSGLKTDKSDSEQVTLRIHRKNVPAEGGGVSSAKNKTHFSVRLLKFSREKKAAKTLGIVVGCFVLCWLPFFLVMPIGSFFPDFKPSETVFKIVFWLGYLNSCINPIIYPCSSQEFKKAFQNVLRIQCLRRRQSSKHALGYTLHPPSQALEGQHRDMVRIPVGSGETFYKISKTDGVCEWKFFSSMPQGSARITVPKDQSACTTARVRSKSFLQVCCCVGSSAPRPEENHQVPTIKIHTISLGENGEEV
Experimental: (§1) Receptor binding assays were performed using native α-adrenoceptors. The affinity of different compounds for α1A and α1B adrenoceptor subtypes was evaluated by studying their ability to displace specific [^3H] prazosin binding from the membranes of rat submaxillary and liver respectively (Michel et al, Br J. Pharmacol.; 1989; 98:883). The binding assays were performed according to U'Prichard et al. (Eur J Pharmacol., 1978; 50:87) with minor modifications.
(§2) Submaxillary glands were isolated immediately after sacrifice. The liver was perfused with buffer (Tris HCl 50 mM, NaCl 100 mM, 10 mM EDTA pH 7.4). The tissues were homogenised in 10 volumes of buffer (Tris HCl 50 mM, NaCl 100 mM, 10 mM EDTA pH 7.4). The homogenate was filtered through two layers of wet gauge and filtrate was centrifuged at 500 g for 10 min. The supernatant was subsequently centrifuged at 40,000 g for 45 min. The pellet thus obtained was resuspended in the same volume of assay buffer (Tris HCl 50 mM, 5 mM EDTA pH 7.4) and were stored at −70° C. until the time of assay.
(§3) The membrane homogenates (150-250 μg protein) were incubated in 250 μl of assay buffer (Tris HCl 50 mM, EDTA 5 mM, pH 7.4) at 24-25° C. for 1 hour. Non specific binding was determined in the presence of 300 nM prazosin. The incubation was terminated by vacuum filtration over GF/B fibre filters. The filters were then washed with ice cold 50 mM Tris HCl buffer (pH 7.4). The filtermats were dried and bound radioacivity retained on filters was counted. The IC50 and Kd were estimated by using the non linear curve fitting program using G Pad Prism software. The value of inhibition constant Ki was calculated from competitive binding studies by using Cheng & Prusoff equation (Cheng & Prusoff, Biochem Pharmacol, 1973,22: 3099), Ki=IC50/(1+L/Kd) where L is the concentration of [^3H] prazosin used in the particular experiment (Table I).

α1B adrenoceptor = target: T2, α1B adrenoceptor (Rattus norvegicus, UniProt P15823); test: Radioligand binding, [3H] prazosin displacement, rat liver membranes; conditions: read-out: Affinity for α1B (Rat Liver), Ki
T2 construct: from tissue; host or cells: rat liver membranes
T2 sequence (P15823 1-515): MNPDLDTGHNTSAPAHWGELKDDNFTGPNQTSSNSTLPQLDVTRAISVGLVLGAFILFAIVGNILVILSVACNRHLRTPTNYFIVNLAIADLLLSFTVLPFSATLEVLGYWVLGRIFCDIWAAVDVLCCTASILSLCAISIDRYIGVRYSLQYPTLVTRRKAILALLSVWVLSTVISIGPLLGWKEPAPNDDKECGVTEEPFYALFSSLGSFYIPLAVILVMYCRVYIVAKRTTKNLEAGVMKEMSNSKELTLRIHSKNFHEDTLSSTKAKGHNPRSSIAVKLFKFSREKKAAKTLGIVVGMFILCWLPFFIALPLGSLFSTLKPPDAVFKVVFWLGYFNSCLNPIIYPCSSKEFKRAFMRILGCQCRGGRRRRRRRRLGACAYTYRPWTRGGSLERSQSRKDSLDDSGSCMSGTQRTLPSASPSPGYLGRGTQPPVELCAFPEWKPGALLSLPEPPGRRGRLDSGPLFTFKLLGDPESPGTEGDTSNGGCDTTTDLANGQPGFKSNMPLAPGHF
Experimental: as §1, §2, §3

prostate (α1A) = target: T3, prostate (α1A) (Rattus norvegicus, UniProt P43140); test: In vitro functional study, isolated rat prostate, antagonism of phenylepinephrine contraction; assay type: biochemical
T3 construct: from tissue; host or cells: isolated rat prostate (male Wistar)
T3 sequence (P43140 1-466): T1 sequence (P43140 1-466)
Source text: (§4) In order to study selectivity of action of these compounds towards different α-adrenoceptor subtypes, the ability of these compounds to antagonise aorta (α1D), prostate (α1A) and spleen (α1B) was studied. Aorta, prostrate and spleen tissues were isolated from urethane anaesthetized (1.5 g/kg) male wister rats. Isolated tissues were mounted in organ bath containing Krebs Henseleit buffer of the following composition (mM): NaCl 118; KCl 4.7; CaCl2 2.5; MgSO4 7H2O 1.2; NaHCO3 25; KH2PO4 1.2; glucose 11.5. Buffer was maintained at 37° C. and aereated with a mixture of 95% O2 and 5% CO2. A resting tension of 2 g (aorta) or 1 g (spleen and prostate) was applied to tissues. Contractile response was monitored using a force displacement transducer and recorded on chart recorders. Tissues were allowed to equilibrate for 2 hours. At the end of equilibration period, concentration response curves to norepinephrine (aorta) and phenylepinephrine (spleen and prostate) were obtained in the absence and presence of tested compound (at concentration of 0.1, 1 and 10 μM). Antagonist affinity was calculated and expressed as pKB values in Table II.

spleen (α1B) = target: T4, spleen (α1B) (Rattus norvegicus, UniProt P15823); test: In vitro functional study, isolated rat spleen, antagonism of phenylepinephrine contraction; assay type: biochemical; conditions: compound at 0.1, 1 and 10 μM
T4 construct: from tissue; host or cells: isolated rat spleen (male Wistar)
T4 sequence (P15823 1-515): T2 sequence (P15823 1-515)
Source text: as §4

aorta (α1D) = target: T5, aorta (α1D) (Rattus norvegicus, UniProt P23944); test: In vitro functional study, isolated rat aorta, antagonism of norepinephrine contraction; assay type: biochemical; conditions: compound at 0.1, 1 and 10 μM
T5 construct: Isolated tissues were mounted in organ bath containing Krebs Henseleit buffer; from tissue; host or cells: isolated rat aorta (male Wistar)
T5 sequence (P23944 1-561): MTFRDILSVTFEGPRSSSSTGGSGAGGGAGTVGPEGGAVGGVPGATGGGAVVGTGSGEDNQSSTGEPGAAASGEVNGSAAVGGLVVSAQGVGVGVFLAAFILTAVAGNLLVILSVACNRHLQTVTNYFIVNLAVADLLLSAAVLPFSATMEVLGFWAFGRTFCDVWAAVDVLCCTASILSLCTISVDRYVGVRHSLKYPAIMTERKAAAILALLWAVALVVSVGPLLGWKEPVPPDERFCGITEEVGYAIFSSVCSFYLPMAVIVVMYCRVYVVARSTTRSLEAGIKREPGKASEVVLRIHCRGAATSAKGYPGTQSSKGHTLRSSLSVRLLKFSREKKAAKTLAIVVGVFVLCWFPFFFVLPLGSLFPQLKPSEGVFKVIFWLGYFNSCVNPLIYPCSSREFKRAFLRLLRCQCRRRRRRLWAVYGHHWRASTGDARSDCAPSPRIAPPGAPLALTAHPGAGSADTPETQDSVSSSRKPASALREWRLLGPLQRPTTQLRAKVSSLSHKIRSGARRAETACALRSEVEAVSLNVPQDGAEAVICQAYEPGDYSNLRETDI
Source text: as §4

α1-adrenoceptor = conditions: background statement; cited from earlier work

Compound	pKi (α1A adrenoceptor)	pKi (α1B adrenoceptor)	α1B/α1A (α1A adrenoceptor)	Selectivity α1D/α1A (prostate (α1A); functional assays, aorta vs prostate)	Selectivity α1B/α1A (prostate (α1A); functional assays, spleen vs prostate)	α1A (pKB) (prostate (α1A); rat prostate, phenylepinephrine, compound at 0.1, 1 and 10 μM)	α1B (pKB) (spleen (α1B))	α1D (pKB) (aorta (α1D))	α1-adrenergic blocking activity (pKi) (α1-adrenoceptor)
CC(C)Oc1ccccc1N1CCN(CCCNC(=O)CCCC(=O)O)CC1	6.11	5.68	3	–	–	–	–	–	–
COc1cc2nc(N3CCN(C(=O)c4ccco4)CC3)nc(N)c2cc1OC [prazosin]	–	–	–	–	–	–	–	–	> 8
COC(=O)CCCC(=O)NCCCN1CCN(c2ccccc2OC)CC1 [hydrochloride]	6.86	< 6.00	>7	–	–	–	–	–	–
O=C(O)CCCC(=O)NCCCN1CCN(c2ccccc2O)CC1 [Compound No. 7, 5-[N-{3-(2-hydroxyphenyl)piperazin-1-yl}]-1-aminopropyl-5-oxo-pentan-1-oic acid]	4.90	4.89	1	–	–	–	–	–	–
O=C(O)C1CC=CCC1C(=O)NCCCN1CCN(c2ccccc2O)CC1 (centres unmarked) [Compound No. 8, 1-Carboxy cyclohex-4-ene-2-[N-{3-(2-hydroxyphenyl)piperazin-1-yl}propyl]carboxamide]	6.23	5.29	9	–	–	–	–	–	–
COc1ccccc1N1CCN(CC(O)CNC(=O)CCCC(=O)O)CC1 (centres unmarked) [Compound No. 12]	< 6.00	< 5.00	1	–	–	–	–	–	–

The next lines start with results.

pKi (α1A adrenoceptor)	pKi (α1B adrenoceptor)	α1B/α1A (α1A adrenoceptor)	Selectivity α1D/α1A (prostate (α1A); functional assays, aorta vs prostate)	Selectivity α1B/α1A (prostate (α1A); functional assays, spleen vs prostate)	α1A (pKB) (prostate (α1A); rat prostate, phenylepinephrine, compound at 0.1, 1 and 10 μM)	α1B (pKB) (spleen (α1B))	α1D (pKB) (aorta (α1D))	Compound	α1-adrenergic blocking activity (pKi) (α1-adrenoceptor)
< 6.00	< 6.00	–	–	–	–	–	–	COc1ccccc1N1CCN(CC(O)CNC(=O)C2CC=CCC2C(=O)O)CC1 (centres unmarked) [Compound No. 3]	–
7.68	5.75	84	–	–	–	–	–	CC(C)Oc1ccccc1N1CCN(CC(O)CNC(=O)C2CC=CCC2C(=O)O)CC1 (centres unmarked) [Compound No. 5, 1-Carboxy cyclohex-4-ene-2-[N-{3-(2-isopropoxyphenyl)piperazin-1-yl}-2-hydroxypropyl]carboxamide]	–
5.72	5.01	5	–	–	–	–	–	O=C(O)C1CC=CCC1C(=O)NCC(O)CN1CCN(c2ccccc2O)CC1 (centres unmarked) [Compound No. 4]	–
8.50	7.00	31	–	–	–	–	–	1-Carboxymethylcyclohex-4-ene-2-[N-{3-(2-isopropoxyphenyl)piperazin-1-yl}-propyl]carboxamide hydrochloride [Compound No. 11]	–
7.70	< 6.00	>50	9.5	1.15	8.22	8.16	7.24	1-Carboxycyclohex-4-ene-2-[N-{3-(2-ethoxyphenyl)piperazin-1-yl}propyl]carboxamide [Compound No. 1]	–
6.40	5.91	3	–	–	–	–	–	1-Carboxy cyclohex-4-ene-2-[N-{3-(2-ethoxyphenyl)piperazin-1yl}-2-hydroxyphenyl]carboxamide [Compound No. 6]	–
7.72	< 6.00	>53	–	–	–	–	–	CC(C)Oc1ccccc1N1CCN(CCCNC(=O)C2CC=CCC2C(=O)O)CC1 (centres unmarked) [Compound No. 2, 1-Carboxy cyclohex-4-ene-2-[N-{3-(2-isopropoxyphenyl)piperazin-1-yl}propyl]carboxamide]	–
